Where “and” joins values, the source holds several entries; their conditions need not be identical. Equal values may be shown once. Inconclusive results and toxic doses are left out. No stated cut-off is given here; in the data, active means T/C of 150% or more; inactive means T/C below 125%.
Tested on: L1210 leukemia ip in BDF1 mice, survival T/C
Assay: NCI In Vivo Anticancer Drug Screen. Data for tumor model L1210 Leukemia (intraperitoneal) in B6D2F1 (BDF1) mice
Settings: endpoint: mean survival time, higher = longer survival
Method in brief: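 Survival endpoint. Drug-treated group vs vehicle group, expressed as T divided by C. Tumor passaged by transplantation.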

[1] = dose: 100.0 mg/kg/injection, schedule: Q04DX003 (ip), vehicle: saline with Tween-80
[2] = dose: 50.0 mg/kg/injection, schedule: Q01DX009 (ip), vehicle: saline
[3] = dose: 100.0 mg/kg/injection, schedule: Q01DX009 (ip), vehicle: saline
[4] = dose: 100.0 mg/kg/injection, schedule: Q04DX003 (ip), vehicle: saline
[5] = dose: 200.0 mg/kg/injection, schedule: Q01DX009 (ip), vehicle: saline
[6] = dose: 200.0 mg/kg/injection, schedule: Q04DX003 (ip), vehicle: saline
[7] = dose: 100.0 mg/kg/injection, schedule: Q04DX003 (ip), vehicle: Klucel (hydroxypropylcellulose) (HPC)
[8] = dose: 200.0 mg/kg/injection, schedule: Q04DX003 (ip), vehicle: Klucel (hydroxypropylcellulose) (HPC)
[9] = dose: 400.0 mg/kg/injection, schedule: Q04DX003 (ip), vehicle: Klucel (hydroxypropylcellulose) (HPC)
[10] = dose: 400.0 mg/kg/injection, schedule: Q04DX003 (ip), vehicle: saline
[11] = dose: 100.0 mg/kg/injection, schedule: Q01DX009 (ip), vehicle: Klucel (hydroxypropylcellulose) (HPC)
[12] = dose: 200.0 mg/kg/injection, schedule: Q01DX009 (ip), vehicle: Klucel (hydroxypropylcellulose) (HPC)
[13] = dose: 6.25 mg/kg/injection, schedule: Q01DX009 (ip), vehicle: saline
[14] = dose: 12.5 mg/kg/injection, schedule: Q01DX009 (ip), vehicle: saline
[15] = dose: 12.5 mg/kg/injection, schedule: Q04DX003 (ip), vehicle: saline
[16] = dose: 25.0 mg/kg/injection, schedule: Q01DX009 (ip), vehicle: saline
[17] = dose: 25.0 mg/kg/injection, schedule: Q04DX003 (ip), vehicle: saline
[18] = dose: 400.0 mg/kg/injection, schedule: Q01DX009 (ip), vehicle: Klucel (hydroxypropylcellulose) (HPC)
[19] = dose: 100.0 mg/kg/injection, schedule: Q01DX001 (ip), vehicle: saline
[20] = dose: 200.0 mg/kg/injection, schedule: Q01DX001 (ip), vehicle: saline
[21] = dose: 400.0 mg/kg/injection, schedule: Q01DX001 (ip), vehicle: saline

Measured: T/C

NC(=O)c1cc([N+](=O)[O-])ccc1N=NN(CCCl)CCCl
active: dose: 400.0 mg/kg/injection, schedule: Q04DX003 (ip), vehicle: saline with Tween-80 165 % of control
inactive: [1] 114 % of control | dose: 177.0 mg/kg/injection, schedule: Q04DX003 (ip), vehicle: saline with Tween-80 111 % of control | dose: 200.0 mg/kg/injection, schedule: Q01DX009 (ip), vehicle: saline with Tween-80 107 % of control | dose: 266.0 mg/kg/injection, schedule: Q04DX003 (ip), vehicle: saline with Tween-80 114 % of control

Cn1cc(C=O)c2nccnc21
inactive: [2] 98 % of control | [3] 95 % of control | [4] 100 % of control | [5] 98 % of control | [6] 100 % of control

C1OCC(C2OCOC3COCOC32)O1 (centres undefined)
inactive: [7] 98 % of control | [8] 95 % of control | [9] 95 % of control

O=C1OCc2c1cc1n(c2=O)Cc2cc3ccccc3nc2-1
inactive: dose: 100.0 mg/kg/injection, schedule: Q01DX001 (ip), vehicle: Klucel (hydroxypropylcellulose) (HPC) 89 % of control | dose: 200.0 mg/kg/injection, schedule: Q01DX001 (ip), vehicle: Klucel (hydroxypropylcellulose) (HPC) 89 % of control | dose: 400.0 mg/kg/injection, schedule: Q01DX001 (ip), vehicle: Klucel (hydroxypropylcellulose) (HPC) 103 % of control

CC1(C)CCSC(/C=C/c2ccccc2)=N1
inactive: [4] 100 % of control | [6] 102 % of control | [10] 103 % of control

CS(=O)(=O)OC[C@@H]1C2C=CC(C2)[C@@H]1COS(C)(=O)=O
inactive: dose: 50.0 mg/kg/injection, schedule: Q01DX009 (ip), vehicle: Klucel (hydroxypropylcellulose) (HPC) 107 % of control | [11] 100 % of control | [7] 98 % of control | [12] 104 % of control | [8] 94 % of control | [9] 107 % of control

CCN(CC)c1ccc(/C=N/N=C(N)N)cc1
inactive: dose: 3.8 mg/kg/injection, schedule: Q01DX Z (ip), vehicle: other 109 % of control | dose: 7.5 mg/kg/injection, schedule: Q01DX Z (ip), vehicle: other 88 % of control | dose: 15.0 mg/kg/injection, schedule: Q01DX Z (ip), vehicle: other 97 % of control

CCN(C)CCC(C=NCC(CCN(C)CC)(CCN(C)CC)c1cccc2ccccc12)(CCN(C)CC)c1cccc2ccccc12
inactive: [13] 103 % of control | [14] 96 % of control | [15] 101 % of control | [16] 111 % of control | [17] 106 % of control

CCCC(=O)N1C(C)CCC1C (centres undefined)
inactive: dose: 100.0 mg/kg/injection, schedule: Q04DX002 (ip), vehicle: saline with Tween-80 103 % of control | dose: 200.0 mg/kg/injection, schedule: Q04DX002 (ip), vehicle: saline with Tween-80 95 % of control

Cc1ccc(Cl)c(NC(=O)c2ccc(C(=O)Nc3cc(C)ccc3Cl)cc2)c1
inactive: [11] 87 % of control | [12] 88 % of control | [18] 91 % of control

CCCN=C(N)C(N)=NCCC
inactive: [3] 91 % of control | [4] 98 % of control | [5] 92 % of control | [6] 98 % of control | [10] 91 % of control

Cc1ccc2c3csc4ccccc4c-3nc2c1
inactive: [13] 101 % of control | [14] 95 % of control | [15] 93 % of control | [17] 92 % of control

C#CC1(NC(=S)Nc2ccc(C)cc2)CCCCC1
inactive: dose: 100.0 mg/kg/injection, schedule: Q01DX009 (ip), vehicle: carboxymethylcellulose (CMC) 100 % of control and 92 % of control | dose: 200.0 mg/kg/injection, schedule: Q01DX009 (ip), vehicle: carboxymethylcellulose (CMC) 95 % of control and 100 % of control | dose: 400.0 mg/kg/injection, schedule: Q01DX009 (ip), vehicle: carboxymethylcellulose (CMC) 106 % of control and 113 % of control

CC1(C)N=C(N)N=C(N)N1c1ccc(CC(C(=O)Nc2ccc(S(=O)(=O)F)cc2)c2ccccc2)cc1 (centres undefined)
inactive: dose: 75.0 mg/kg/injection, schedule: Q01DX001 (ip), vehicle: Klucel (hydroxypropylcellulose) (HPC) 97 % of control | dose: 150.0 mg/kg/injection, schedule: Q01DX001 (ip), vehicle: Klucel (hydroxypropylcellulose) (HPC) 94 % of control | dose: 300.0 mg/kg/injection, schedule: Q01DX001 (ip), vehicle: Klucel (hydroxypropylcellulose) (HPC) 90 % of control

NC(C(=O)O)c1ccccc1 (centres undefined)
inactive: dose: 12.5 mg/kg/injection, schedule: Q04DX002 (ip), vehicle: Klucel (hydroxypropylcellulose) (HPC) 96 % of control | dose: 25.0 mg/kg/injection, schedule: Q04DX002 (ip), vehicle: Klucel (hydroxypropylcellulose) (HPC) 104 % of control | dose: 50.0 mg/kg/injection, schedule: Q04DX002 (ip), vehicle: Klucel (hydroxypropylcellulose) (HPC) 96 % of control

COC(=O)C1=COC(C)C(C=O)C1CC(=O)O (centres undefined)
inactive: [14] 108 % of control | dose: 20.0 mg/kg/injection, schedule: Q01DX001 (ip), vehicle: saline 103 % of control | [16] 103 % of control | [17] 110 % of control | dose: 40.0 mg/kg/injection, schedule: Q01DX001 (ip), vehicle: saline 118 % of control | dose: 50.0 mg/kg/injection, schedule: Q04DX003 (ip), vehicle: saline 111 % of control | dose: 80.0 mg/kg/injection, schedule: Q01DX001 (ip), vehicle: saline 118 % of control

CCCCCCCCCCCCCCCCCOc1ccc(Sc2ccc([N+](=O)[O-])cc2)cc1
inactive: [8] 92 % of control

O=c1[nH]nnc2c1cnn2C1OC(CO)C(O)C1O (centres undefined)
inactive: [19] 100 % of control | [20] 106 % of control | [21] 97 % of control

CCOC(=O)C(C(=O)OCC)C(=O)OCC
inactive: [19] 102 % of control | [20] 102 % of control | [21] 105 % of control

CCC(=O)c1ccc(Cc2ccc(C(=O)CC)cc2)cc1
inactive: dose: 125.0 mg/kg/injection, schedule: Q01DX001 (ip), vehicle: saline 104 % of control | dose: 250.0 mg/kg/injection, schedule: Q01DX001 (ip), vehicle: saline 101 % of control | dose: 500.0 mg/kg/injection, schedule: Q01DX001 (ip), vehicle: saline 93 % of control | dose: 1000.0 mg/kg/injection, schedule: Q01DX001 (ip), vehicle: saline 98 % of control

CC1(C(Cl)(Cl)Cl)C=CC(=NO)C=C1 (centres undefined)
inactive: [1] 110 % of control | dose: 200.0 mg/kg/injection, schedule: Q04DX003 (ip), vehicle: saline with Tween-80 101 % of control

Cc1cc2cc3c(=O)[nH]c(=O)nc-3n(CC(O)C(O)C(O)COP(=O)(O)O)c2cc1C (centres undefined)
inactive: [16] 96 % of control | [2] 100 % of control | [3] 94 % of control and 89 % of control | [4] 110 % of control | [5] 86 % of control | [6] 100 % of control | [10] 98 % of control

O=C(NCCNC(=O)c1cccnc1)c1ccncc1
inactive: dose: 100.0 mg/kg/injection, schedule: Q04DX003 (ip), vehicle: acetone 95 % of control | dose: 200.0 mg/kg/injection, schedule: Q04DX003 (ip), vehicle: acetone 105 % of control | dose: 400.0 mg/kg/injection, schedule: Q04DX003 (ip), vehicle: acetone 106 % of control

ClCCN(CCCl)c1ccc(C=Nc2ccc(/C=C\c3ccnc4ccccc34)cc2)cc1
inactive: dose: 100.0 mg/kg/injection, schedule: Q01DX001 (ip), vehicle: other 96 % of control | dose: 200.0 mg/kg/injection, schedule: Q01DX001 (ip), vehicle: other 94 % of control | dose: 400.0 mg/kg/injection, schedule: Q01DX001 (ip), vehicle: other 94 % of control

COC(=O)C1OC1c1ccc2ccccc2c1 (centres undefined)
inactive: [11] 93 % of control | [12] 95 % of control | [18] 97 % of control

COC(=O)CCCCCCCC(=O)O
inactive: [11] 94 % of control | [12] 98 % of control | [18] 102 % of control

O=C1OC(C(O)C(O)CO)C(O)C1O (centres undefined)
inactive: [2] 92 % of control | [3] 92 % of control | [4] 92 % of control | [5] 97 % of control | [6] 94 % of control | [10] 100 % of control

O=C(O)c1cc(O)ccc1N=Nc1ccccc1
inactive: dose: 100.0 mg/kg/injection, schedule: Q01DX001 (ip), vehicle: carboxymethylcellulose (CMC) 95 % of control | dose: 200.0 mg/kg/injection, schedule: Q01DX001 (ip), vehicle: carboxymethylcellulose (CMC) 95 % of control | dose: 400.0 mg/kg/injection, schedule: Q01DX001 (ip), vehicle: carboxymethylcellulose (CMC) 98 % of control

— PubChem BioAssay AID248 (DTP/NCI, 2004)
